From US12570675B2, “Boronic acid compounds” (LG CHEM, LTD., priority 2020, dated 2026)

What was measured:
[1] = target: Proteasome chymotrypsin-like activity (S26 protein from RPMI8226 cells) (Homo sapiens, UniProt P28074); type: biochemical; details: S26 protein from RPMI8226 cell extract 2 ug/well, substrate 20 uM, 37° C., 90 minutes; read-out: Proteasome chymotrypsin-like activity inhibition IC50
How it was run: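 Fluorogenic AMC substrates (20 uM final) report chymotrypsin-like (Suc-Leu-Leu-Val-Tyr-AMC) or caspase-like (Z-Leu-Leu-Glu-AMC) cleavage by RPMI8226-derived S26 protein, 2 ug/well, pH 8.0 Tris lysate.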

[2] = target: Proteasome caspase-like activity (S26 protein from RPMI8226 cells) (Homo sapiens (Human), UniProt P28072); test: Proteasome caspase-like activity inhibition (Z-Leu-Leu-Glu-AMC fluorogenic substrate, RPMI8226 cell extract); type: biochemical; details: S26 protein from RPMI8226 cell extract 2 ug/well, substrate 20 uM, 37° C., 90 minutes
Experimental: The abilities to inhibit the proteasome activity of the compounds described in the Examples of the present invention and boronic acid drugs were evaluated as follows.
RPMI8226 cells, which is a multiple myeloma cell line, were cultured and then separated by a centrifuge, and washed twice with phosphate buffered saline (PBS). 20 mM of a tris-HCl (pH 8.0) buffer solution was added to the washed cells, and the cells were disrupted by a homogenizer and centrifuged to obtain S26 protein from the supernatant. Suc-Leu-Leu-Val-Tyr-AMC, for a fluorogenic substrate for the chymotrypsin-like activity of the proteasome, and Z-Leu-Leu-Glu-AMC, for a fluorogenic substrate for the caspase-like activity, were purchased from Calbiochem, EMD Millipore and used. Into each well of a 96-well plate (opaque, black round bottom), 20 ul of the S26 protein (final RPMI8226 cell extract concentration: 2 ug/well), 10 ul of S26 proteasome inhibitor serially diluted from 10 uM (final DMSO concentration: 0.5%), and 20 ul of the fluorogenic substrate for the proteasome chymotrypsin-like or caspase-like activity (final concentration: 20 uM) were added and mixed and allowed to react in a 37° C. incubator for 90 minutes. The fluorescence of the fluorogenic substrate was measured by FlexStation II Fluorometer (Molecular Devices). The fluorescence inhibited by the compound diluted at each concentration was measured as the relative percentage value for the amount obtained from the treatment only with the S26 protein and the fluorogenic substrate. IC50 (inhibitory concentration 50) was expressed in terms of a concentration that inhibits 50% of the maximum fluorescence induced by the fluorogenic substrate.

Proteasome caspase-like activity (S26 protein from RPMI8226 cells), sequence (P28072 whole entry): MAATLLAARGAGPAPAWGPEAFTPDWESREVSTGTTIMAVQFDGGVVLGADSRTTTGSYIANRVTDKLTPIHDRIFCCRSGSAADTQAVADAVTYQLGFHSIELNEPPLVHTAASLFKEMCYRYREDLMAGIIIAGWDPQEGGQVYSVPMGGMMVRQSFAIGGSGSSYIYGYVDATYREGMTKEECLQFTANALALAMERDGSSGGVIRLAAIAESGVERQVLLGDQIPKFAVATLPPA
Proteasome chymotrypsin-like activity (S26 protein from RPMI8226 cells), sequence (P28074 60-263 limits assumed): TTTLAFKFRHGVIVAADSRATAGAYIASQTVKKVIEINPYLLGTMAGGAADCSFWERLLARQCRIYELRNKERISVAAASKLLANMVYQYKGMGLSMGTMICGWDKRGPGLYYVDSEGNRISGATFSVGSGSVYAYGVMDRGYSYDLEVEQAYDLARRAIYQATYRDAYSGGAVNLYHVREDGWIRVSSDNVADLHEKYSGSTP

SMILES	IC50 [1] [nM]	IC50 [2] [nM]
Cc1cnc(COCC2=NOC(Cc3ccccc3)(C(=O)N[C@@H](CC(C)C)B(O)O)C2)cn1 (stereo partly drawn) [Example 48, ((1R)-1-(5-benzyl-3-(((5-methylpyrazin-2-yl)methoxy)methyl)-4,5-dihydroisoxazol-5-carboxamido)-3-methylbutyl)boronic acid]	< 25	> 250
CC(C)C[C@H](NC(=O)C1CC(CNC(=O)c2ccccc2)=NO1)B(O)O (stereo partly drawn) [Example 59, ((1R)-1-(3-(benzamidomethyl)-4,5-dihydroisoxazol-5-carboxamido)-3-methylbutyl)boronic acid]	< 100	> 500
CC(C)C[C@H](NC(=O)C1CC(CNC(=O)c2cccc(Oc3ccccc3)c2)=NO1)B(O)O (stereo partly drawn) [Example 71, ((1R)-3-methyl-1-(3-((3-phenoxybenzamido)methyl)-4,5-dihydroisoxazol-5-carboxamido)butyl)boronic acid]	< 25	> 250
CC(C)C[C@H](NC(=O)C1CC([C@H](CC(C)C)NC(=O)c2nccc3ccccc23)=NO1)B(O)O (stereo partly drawn) [Example 73, ((1R)-1-(3-((S)-1-(isoquinolin-1-carboxamido)-3-methylbutyl)-4,5-dihydroisoxazol-5-carboxamido)-3-methylbutyl)boronic acid]	< 25	> 100
CC(C)C[C@H](NC(=O)C1CC([C@H](CC(C)C)NC(=O)c2cc(Cl)ccc2Cl)=NO1)B(O)O (stereo partly drawn) [Example 74, ((1R)-1-(3-((S)-1-(2,5-dichlorobenzamido)-3-methylbutyl)-4,5-dihydroisoxazol-5-carboxamido)-3-methylbutyl)boronic acid]	< 25	> 500
Cc1ccc(F)cc1C(=O)NCC1=NOC(C(=O)N[C@@H](CC(C)C)B(O)O)C1 (stereo partly drawn) [Example 82, ((1R)-1-(3-((5-fluoro-2-methylbenzamido)methyl)-4,5-dihydroisoxazol-5-carboxamido)-3-methylbutyl)boronic acid]	< 50	> 500
CC(C)C[C@H](NC(=O)C1(C)CC(CNC(=O)c2cc(Cl)ccc2Cl)=NO1)B(O)O (stereo partly drawn) [Example 86, ((1R)-1-(3-((2,5-dichlorobenzamido)methyl)-5-methyl-4,5-dihydroisoxazol-5-carboxamido)-3-methylbutyl)boronic acid]	< 50	> 2500
CCC1(C(=O)N[C@@H](CC(C)C)B(O)O)CC(CNC(=O)c2cc(Cl)ccc2Cl)=NO1 (stereo partly drawn) [Example 87, ((1R)-1-(3-((2,5-dichlorobenzamido)methyl)-5-ethyl-4,5-dihydroisoxazol-5-carboxamido)-3-methylbutyl)boronic acid]	< 50	> 2500
CCCC1(C(=O)N[C@@H](CC(C)C)B(O)O)CC(CNC(=O)c2cc(Cl)ccc2Cl)=NO1 (stereo partly drawn) [Example 88, ((1R)-1-(3-((2,5-dichlorobenzamido)methyl)-5-propyl-4,5-dihydroisoxazol-5-carboxamido)-3-methylbutyl)boronic acid]	< 25	> 2500
CC(C)C[C@H](NC(=O)C1(Cc2ccccc2)CC(CNC(=O)c2cc(C(F)(F)F)ccc2Cl)=NO1)B(O)O (stereo partly drawn) [Example 112, ((1R)-1-(5-benzyl-3-((2-chloro-5-(trifluoromethyl)benzamido)methyl)-4,5-dihydroisoxazol-5-carboxamido)-3-methylbutyl)boronic acid]	< 10	> 2500
CC(C)C[C@H](NC(=O)C1(Cc2ccccc2)CC(CNC(=O)c2cccc3cccnc23)=NO1)B(O)O (stereo partly drawn) [Example 113, ((1R)-1-(5-benzyl-3-((quinolin-8-carboxamido)methyl)-4,5-dihydroisoxazol-5-carboxamido)-3-methylbutyl)boronic acid]	< 10	> 500
CC(C)C[C@H](NC(=O)C1(Cc2ccccc2)CC(CNC(=O)c2cccc(C#N)n2)=NO1)B(O)O (stereo partly shown) [Example 323]	< 10	–
CC(C)C[C@H](NC(=O)CNC(=O)c1cc(Cl)ccc1Cl)B(O)O [ixazomib]	–	7

Second part, the molecule after the results:

IC50 [1] [nM]	IC50 [2] [nM]	SMILES
< 10	> 250	Cc1nc(COCC2=NOC(Cc3ccccc3)(C(=O)N[C@@H](CC(C)C)B(O)O)C2)cs1 (stereo partly drawn) [Example 46, ((1R)-1-(5-benzyl-3-(((2-methylthiazol-4-yl)methoxy)methyl)-4,5-dihydroisoxazol-5-carboxamido)-3-methylbutyl)boronic acid]
< 10	> 250	Cc1cccc(COCC2=NOC(Cc3ccccc3)(C(=O)N[C@@H](CC(C)C)B(O)O)C2)n1 (stereo partly drawn) [Example 47, ((1R)-1-(5-benzyl-3-(((6-methylpyridin-2-yl)methoxy)methyl)-4,5-dihydroisoxazol-5-carboxamido)-3-methylbutyl)boronic acid]
< 10	> 1000	CC(C)C[C@H](NC(=O)C1(Cc2ccccc2)CC(COCc2nccc3ccccc23)=NO1)B(O)O (stereo partly drawn) [Example 49, ((1R)-1-(5-benzyl-3-((isoquinolin-1-ylmethoxy)methyl)-4,5-dihydroisoxazol-5-carboxamido)-3-methylbutyl)boronic acid]
< 10	> 500	Cc1nc(C)c(COCC2=NOC(Cc3ccccc3)(C(=O)N[C@@H](CC(C)C)B(O)O)C2)s1 (stereo partly drawn) [Example 51, ((1R)-1-(5-benzyl-3-(((2,4-dimethylthiazol-5-yl)methoxy)methyl)-4,5-dihydroisoxazol-5-carboxamido)-3-methylbutyl)boronic acid]
< 10	> 500	CC(C)C[C@H](NC(=O)C1CC(CNC(=O)c2nccc3ccccc23)=NO1)B(O)O (stereo partly drawn) [Example 61, ((1R)-1-(3-((isoquinolin-1-carboxamido)methyl)-4,5-dihydroisoxazol-5-carboxamido)-3-methylbutyl)boronic acid]
< 10	> 500	CC(C)C[C@H](NC(=O)C1CC(CNC(=O)c2cccc3c2CCCC3)=NO1)B(O)O (stereo partly drawn) [Example 63, ((1R)-3-methyl-1-(3-((5,6,7,8-tetrahydronaphthalen-1-carboxamido)methyl)-4,5-dihydroisoxazol-5-carboxamido)butyl)boronic acid]
< 10	> 250	CC(C)C[C@H](NC(=O)C1CC(CNC(=O)c2cccc3ccccc23)=NO1)B(O)O (stereo partly drawn) [Example 64, ((1R)-1-(3-((1-naphthamido)methyl)-4,5-dihydroisoxazol-5-carboxamido)-3-methylbutyl)boronic acid]
< 10	> 500	CC(C)C[C@H](NC(=O)C1CC(CNC(=O)c2cc(Cl)ccc2Cl)=NO1)B(O)O (stereo partly drawn) [Example 68, ((1R)-1-(3-((2,5-dichlorobenzamido)methyl)-4,5-dihydroisoxazol-5-carboxamido)-3-methylbutyl)boronic acid]
< 10	> 100	CC(C)C[C@H](NC(=O)C1CC([C@@H](NC(=O)c2cc(Cl)ccc2Cl)C(C)C)=NO1)B(O)O (stereo partly drawn) [Example 72, ((1R)-1-(3-((S)-1-(2,5-dichlorobenzamido)-2-methylpropyl)-4,5-dihydroisoxazol-5-carboxamido)-3-methylbutyl)boronic acid]
< 10	> 1000	CC(C)C[C@H](NC(=O)C1(Cc2ccccc2)CC(CNC(=O)c2nccc3ccccc23)=NO1)B(O)O (stereo partly drawn) [Example 84, ((1R)-1-(5-benzyl-3-((isoquinolin-1-carboxamido)methyl)-4,5-dihydroisoxazol-5-carboxamido)-3-methylbutyl)boronic acid]
< 10	> 1000	CC(C)C[C@H](NC(=O)C1(Cc2ccccc2)CC(CNC(=O)c2cc(Cl)ccc2Cl)=NO1)B(O)O (stereo partly drawn) [Example 85, ((1R)-1-(5-benzyl-3-((2,5-dichlorobenzamido)methyl)-4,5-dihydroisoxazol-5-carboxamido)-3-methylbutyl)boronic acid]
< 10	> 500	CC(C)C[C@H](NC(=O)C1(Cc2ccccc2)CC(CNC(=O)c2cccc3ccccc23)=NO1)B(O)O (stereo partly drawn) [Example 92, ((1R)-1-(3-((1-naphthamido)methyl)-5-benzyl-4,5-dihydroisoxazol-5-carboxamido)-3-methylbutyl)boronic acid]
< 10	> 1000	COc1cccc(CC2(C(=O)N[C@@H](CC(C)C)B(O)O)CC(CNC(=O)c3nccc4ccccc34)=NO2)c1 (stereo partly drawn) [Example 100, ((1R)-1-(3-((isoquinolin-1-carboxamido)methyl)-5-(3-methoxybenzyl)-4,5-dihydroisoxazol-5-carboxamido)-3-methylbutyl)boronic acid]
< 10	> 500	Cc1cc(C(=O)NCC2=NOC(Cc3ccccc3)(C(=O)N[C@@H](CC(C)C)B(O)O)C2)no1 (stereo partly drawn) [Example 107, ((1R)-1-(5-benzyl-3-((5-methylisoxazol-3-carboxamido)methyl)-4,5-dihydroisoxazol-5-carboxamido)-3-methylbutyl)boronic acid]
